In patent US5658939A, “Methionine sulfone and S-substituted cysteine sulfone derivatives as enzyme inhibitors” (Corvas International Inc., priority 1995, dated 1997) one finds IC50, ED50 and Ki data, which are given here for 20 compounds.

The target in test [1] is Purified human alpha-thrombin (Homo sapiens, UniProt P00734). Description: in vitro thrombin inhibition assay, IC50 (chromogenic substrate Pefachrome t-PA). It is filed as biochemical. To be noted: Table 1; 0.25 nM thrombin, 300 μM substrate, pH 7.5, 30 minute incubation. On the procedure: (§1) The ability of the compounds of the present invention to act as inhibitors of thrombin and plasmin catalytic activity was assessed by determining the concentration which inhibited enzyme activity by 50%, (IC50), using the purified human enzymes.
(§2) The buffer used for all assays was HBSA (10 mM HEPES, pH 7.5, 150 mM sodium chloride, 0.1% bovine serum albumin).
(§3) The assay for IC50 determinations was conducted by combining in appropriate wells of a Corning microtiter plate, 50 microliters of HBSA, 50 microliters of the test compound at a specified concentration (covering a broad concentration range) diluted in HBSA (or HBSA alone for Vo (uninhibited velocity) measurement), and 50 microliters of the enzyme diluted in HBSA. Following a 30 minute incubation at ambient temperature, 50 microliters of the substrate at the concentrations specified below, was added to the wells yielding a final total volume of 200 microliters. The initial velocity of chromogenic substrate hydrolysis was measured by the change in absorbance at 405 nm using a Thermo Max® Kinetic Microplate Reader over a 5 minute period in which less than 5% of the added substrate was utilized. The concentration of added inhibitor which caused a 50% decrease in the initial rate of hydrolysis was defined as the IC50 value.
Thrombin catalytic activity was determined using the chromogenic substrate Pefachrome t-PA (CH3 SO2 -D-hexahydrotyrosine-glycyl-L-arginine-p-nitroaniline, obtained from Pentapharm Ltd.). The substrate was made up in deionized water followed by dilution in HBSA prior to the assay in which the final concentration was 300 μM (about 10-times Km). Purified human alpha-thrombin was obtained from Enzyme Research Laboratories, Inc. The enzyme was diluted into HBSA prior to the assay in which the final concentration was 0.25 nM.

Another test has as its target Purified human plasmin (Homo sapiens, UniProt P00747). The experiment in a line: in vitro plasmin inhibition assay, IC50 (chromogenic substrate S-2251). The following applies: Table 1; 1.0 nM plasmin, 300 μM substrate, pH 7.5, 30 minute incubation. The class given is biochemical. On the procedure: as §1, §2, §3
Plasmin catalytic activity was determined using the chromogenic substrate, S-2251 [D-valyl-L-leucyl-L-lysine-p-nirtoanilide dihydrochloride], which was obtained from Kabi Diagnostica. The substrate was made up in deionized water followed by dilution in HBSA prior to the assay in which the final concentration was 300 μM (about 5-times Km). Purified human plasmin was obtained from Enzyme Research Laboratories, Inc. The enzyme was diluted into HBSA prior to assay in which the final concentration was 1.0 nM.

The next test deals with rat carotid artery. The experiment in a line: Rat model of FeCl3-induced platelet-dependent arterial thrombosis. It is filed as in vivo, rat (Male Harlan Sprague Dawley). To be noted: dose that prevents the incidence of complete thrombotic occlusion in 50% of animals tested; FeCl3 model, rat; read-out: ED50 for thrombus prevention.
For another test, the target named is human alpha-thrombin (Homo sapiens, UniProt P00734). The experiment in a line: Determination of inhibition constant Ki for thrombin (steady state velocities, Pefachrome t-PA). It is filed as biochemical. To be noted: Table 2; human alpha-thrombin 0.5 nM, steady state velocities over 40 minutes; read-out: Inhibitor Constants (Ki). On the procedure: The ability of the compounds of the present invention to act as inhibitors of thrombin catalytic activity was assessed by determining their inhibition constant, Ki.
Enzyme activity was determined using the chromogenic substrate Pefachrome t-PA (CH3 SO2 -D-hexahydrotyrosine-glycyl-L-arginine-p-nitroaniline), obtained from Pentapharm Ltd. The substrate was reconstituted in deionized water prior to use. Purified human alpha-thrombin (3000U/mg specific activity) was obtained from Enzyme Research Laboratories, Inc. The buffer used for all assays was HBSA (10 mM HEPES, pH 7.5, 150 mM sodium chloride, 0.1% bovine serum albumin).
Velocities of chromogenic substrate hydrolysis which occurred over 40 minutes was measured by the change in absorbance at 405 nm using a Thermo Max® Kinetic Microplate Reader.
Ki values were determined for test compounds using the relationships developed by Williams and Morrison, Methods in Enzymology, 63:437 (1979) using steady state velocities (Vs) measured over 40 minutes. The extent of substrate hydrolysis was less than 5% over the course of this assay.
Table 2 below gives the Ki values for selected test compounds.

Chain of Purified human plasmin (P00747 581-810 limits assumed): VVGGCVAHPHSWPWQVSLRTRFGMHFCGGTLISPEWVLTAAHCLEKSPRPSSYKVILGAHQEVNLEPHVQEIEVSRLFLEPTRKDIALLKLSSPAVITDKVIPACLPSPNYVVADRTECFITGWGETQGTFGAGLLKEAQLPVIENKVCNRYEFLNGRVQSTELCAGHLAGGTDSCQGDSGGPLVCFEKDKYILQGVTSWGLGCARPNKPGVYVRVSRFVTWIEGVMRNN
Chain of Purified human plasmin (P00747 97-580 limits assumed): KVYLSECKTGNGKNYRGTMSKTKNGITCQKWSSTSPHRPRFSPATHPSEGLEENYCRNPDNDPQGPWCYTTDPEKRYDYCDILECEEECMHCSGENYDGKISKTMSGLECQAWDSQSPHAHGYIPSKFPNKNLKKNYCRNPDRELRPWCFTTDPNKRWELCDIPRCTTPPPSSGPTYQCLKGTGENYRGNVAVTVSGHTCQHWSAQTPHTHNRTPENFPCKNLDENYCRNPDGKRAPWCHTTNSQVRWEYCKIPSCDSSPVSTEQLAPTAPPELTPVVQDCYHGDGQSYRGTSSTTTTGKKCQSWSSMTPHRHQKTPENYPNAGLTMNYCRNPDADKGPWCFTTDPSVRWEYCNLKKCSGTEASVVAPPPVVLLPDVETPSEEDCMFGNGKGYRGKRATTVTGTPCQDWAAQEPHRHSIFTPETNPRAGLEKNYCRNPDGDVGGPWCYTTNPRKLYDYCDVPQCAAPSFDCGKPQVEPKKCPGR
Source text for rat carotid artery: In this model a platelet-rich, occlusive thrombus is formed in a segment of the rat carotid artery treated locally with a fresh solution of FeCl3 absorbed to a piece of filter paper. The FeCl3 is thought to diffuse into the treated segment of artery and causes de-endothelialization of the affected vessel surface. […] The effect of a test compound on the incidence of occlusive thrombus formation following the application of the FeCl3 is monitored by ultrasonic flowtometry and is used as the primary end point. […] Male Harlan Sprague Dawley rats (420-450 g) were acclimated at least 72 hours prior to use and fasted for 12 hours prior to surgery with free access to water. The animals were prepared, anesthetized with Nembutal followed by the insertion of catheters for blood pressure monitoring, drug and anesthesia delivery. The left carotid artery was isolated by making a midline cervical incision followed by blunt dissection and spreading techniques to separate a 2 cm segment of the vessel from the carotid sheath. A silk suture was inserted under the proximal and distal ends of the isolated vessel to provide clearance for the placement of a ultrasonic flow probe (Transonic) around the proximal end of the vessel. The probe was then secured with a stationary arm. […] The test compound was administered as a single intravenous bolus at the doses outlined in Table 3 after placement of the flow probe and 5 minutes prior to the application of the FeCl3 thrombogenic stimulus (t=0). […] Blood pressure, blood flow, heart rate, and respiration were monitored for 60 minutes. The incidence of occlusion (defined as the attainment of zero blood flow) was recorded as the primary end point.

On to `CCCCS(=O)(=O)N[C@@H](CS(=O)(=O)CC(=O)O)C(=O)N1CCC[C@H]1C(=O)N[C@H](C=O)CCCNC(=N)N`, for which the IC50 – broadly, the concentration that gives 50% inhibition – came out at 3 nM in test [1] and 110 nM against Purified human plasmin.

Regarding `N=C(N)NCCC[C@@H](C=O)NC(=O)[C@@H]1CCCN1C(=O)[C@H](CSCC(=O)O)NS(=O)(=O)Cc1ccccc1`, the values for the half-maximal inhibitory concentration (IC50) (in test [1]; on Purified human plasmin) were 13 nM and 490 nM, respectively.

Consider `COC(=O)c1ccccc1S(=O)(=O)N[C@@H](CCS(C)(=O)=O)C(=O)N1CCC[C@H]1C(=O)N[C@H](C=O)CCCNC(=N)N` [2-CMPhSO2 --Met[S(O2)]--Pro--Arg-al], for which the figures for the IC50 (in test [1]; against Purified human plasmin) were 0.81 nM and 200 nM, respectively.

For the compound `CC1CNc2c(cccc2S(=O)(=O)N[C@@H](CCCNC(=N)N)C(=O)N2CC[C@@H](C)C[C@@H]2C(=O)O)C1` (stereo partly drawn) [Argatroban, 2R,4R-4-methyl-1-[N-2-(3-methyl-1,2,3,4-tetrahydro-8-quinolinesulfonyl)-L-argininal]-2-piperdinecarboxylic acid, reference compound], in the test with rat carotid artery, the ED50 (usually the midpoint of the dose-response relation) came out at 3.8 mg/kg.

Regarding `CS(=O)(=O)CC[C@H](NS(=O)(=O)NC1CCCCC1)C(=O)N1CCC[C@H]1C(=O)N[C@H](C=O)CCCNC(=N)N` [ChxNH--SO2 --Met[S(O2)]--Pro--Arg-al], the 50% inhibitory concentration (IC50) was found to be 146 nM in test [1] and 2600 nM against Purified human plasmin.

On to `CCCCS(=O)(=O)N[C@@H](CCS(C)(=O)=O)C(=O)N1CCC[C@H]1C(=O)N[C@H](C=O)CCCNC(=N)N` [Example 11, N-(1-butanesulfonyl)-L-methioninesulfone-L-proline-L-argininal], for which the values for the IC50 (in test [1]; against Purified human plasmin) were 1.6 nM and 199 nM, respectively.

As for `CS(=O)(=O)CC[C@H](NS(=O)(=O)CC1CCCCC1)C(=O)N1CCC[C@H]1C(=O)N[C@H](C=O)CCCNC(=N)N` [Example 18, N-cyclohexylmethanesulfonyl-L-methionine sulfone-L-proline-L-argininal], the half-maximal inhibitory concentration (IC50) in test [1] stood at 0.66 nM; against Purified human plasmin, 30 nM.

As for `CS(=O)(=O)CC[C@H](NS(=O)(=O)c1cccc2ccccc12)C(=O)N1CCC[C@H]1C(=O)N[C@H](C=O)CCCNC(=N)N` [Example 21, N-(1-naphthylenesulfonyl)-L-methionine sulfone-L-proline-L-argininal], the figures for the IC50 (in test [1]; at Purified human plasmin) were 0.78 nM and greater than 25 nM, respectively.

With `CS(=O)(=O)CC[C@H](NS(=O)(=O)c1ccc2ccccc2c1)C(=O)N1CCC[C@H]1C(=O)N[C@H](C=O)CCCNC(=N)N` [Example 24, N-(2-naphthylenesulfonyl)-L-methionine sulfone-L-proline-L-argininal], the values for the IC50 (in test [1]; against Purified human plasmin) were 0.58 nM and 35 nM, respectively. Also, the Ki (as a rule, a dissociation constant, usually derived from enzyme kinetics or from competition with a known ligand) on human alpha-thrombin worked out at 0.135 nM.

In the case of `CCCC(CCC)C(=O)N[C@@H](CCS(C)(=O)=O)C(=O)N1CCC[C@H]1C(=O)N[C@H](C=O)CCCNC(=N)N` [Example 33, N-(2-propylpentanoyl)-L-methionine sulfone-L-proline-L-argininal], the IC50 was determined as 5.5 nM in test [1] and 500 nM against Purified human plasmin. Besides, the Ki on human alpha-thrombin was found to be 4 nM.

As for `CCCCS(=O)(=O)N[C@@H](CS(C)(=O)=O)C(=O)N1CCC[C@H]1C(=O)N[C@H](C=O)CCCNC(=N)N` [Example 40, N-(1-butanesulfonyl)-S-methyl-L-cysteine Sulfone-L-proline-L-argininal], the IC50 was 1.8 nM in test [1] and greater than 250 nM on Purified human plasmin.

`CCCC(CCC)C(=O)N[C@@H](CS(C)(=O)=O)C(=O)N1CCC[C@H]1C(=O)N[C@H](C=O)CCCNC(=N)N` [Example 43, N-(2-propylpentanoyl)-S-methyl-L-cysteine sulfone-L-proline-L-argininal]: the figures for the IC50 (in test [1]; against Purified human plasmin) were 5.1 nM and 2800 nM, respectively.

In the case of `CS(=O)(=O)C[C@H](NS(=O)(=O)c1ccc2ccccc2c1)C(=O)N1CCC[C@H]1C(=O)N[C@H](C=O)CCCNC(=N)N` [Example 46, N-(2-naphthalenesulfonyl)-S-methyl-L-cysteine sulfone-L-proline-L-argininal], the IC50 in test [1] was 1.4 nM; on Purified human plasmin it was greater than 250 nM.

On to `CS(=O)(=O)C[C@H](NS(=O)(=O)c1cccc2ccccc12)C(=O)N1CCC[C@H]1C(=O)N[C@H](C=O)CCCNC(=N)N` [Example 49, N-(1-naphthalenesulfonyl)-S-methyl-L-cysteine sulfone-L-proline-L-argininal], for which the results for the IC50 (in test [1]; on Purified human plasmin) were 3.1 nM and 250 nM, respectively.

Take `N=C(N)NCCC[C@@H](C=O)NC(=O)[C@@H]1CCCN1C(=O)[C@H](CS(=O)(=O)CC(=O)O)NS(=O)(=O)Cc1ccccc1` [Example 56, N-benzylsulfonyl-S-(carboxymethyl)-L-cysteine sulfone-L-proline-L-argininal]: the IC50 in test [1] turned out to be 13 nM; on Purified human plasmin it was 490 nM.

For the compound `CCCC(CCC)C(=O)N[C@@H](CS(=O)(=O)CC(=O)O)C(=O)N1CCC[C@H]1C(=O)N[C@H](C=O)CCCNC(=N)N` [Example 59, N-(2-propylpentanoyl)-S-(carboxymethyl)-L-cysteine sulfone-L-proline-L-argininal], the figures for the half-maximal inhibitory concentration (IC50) (in test [1]; against Purified human plasmin) were 1.6 nM and 220 nM, respectively.

For the compound `COC(=O)CS(=O)(=O)C[C@H](NS(=O)(=O)c1ccc2ccccc2c1)C(=O)N1CCC[C@H]1C(=O)N[C@H](C=O)CCCNC(=N)N` [Example 69, N-(2-naphthylenesulfonyl)-S-(methyl acetate)-L-cysteine sulfone-L-proline-L-argininal], the IC50 amounted to 0.56 nM in test [1] and 61 nM against Purified human plasmin.

Turning to `N=C(N)NCCC[C@@H](C=O)NC(=O)[C@@H]1CCCN1C(=O)[C@H](CS(=O)(=O)Cc1ccc(C(=O)O)cc1)NS(=O)(=O)Cc1ccccc1` [Example 139, N-benzylsulfonamide-L-cysteine-S-sulfone-(p-toluic acid) -L-proline-argininal aldehyde], the results for the IC50 (in test [1]; on Purified human plasmin) were 1.7 nM and 250 to 2500 nM, respectively.

As to `CCCC(CCC)C(=O)N[C@@H](CS(=O)(=O)Cc1ccc(C(=O)O)cc1)C(=O)N1CCC[C@H]1C(=O)N[C@H](C=O)CCCNC(=N)N` [Example 144, N-2-propylpentylamide-L-cysteine-S-sulfone (p-toluic acid) -L-proline-arginal aldehyde], the values for the IC50 (in test [1]; at Purified human plasmin) were 0.742 nM and 388 nM, respectively.

As to `CC1(C)[C@@H]2CC[C@@]1(CS(=O)(=O)N[C@@H](CCS(C)(=O)=O)C(=O)N1CCC[C@H]1C(=O)N[C@H](C=O)CCCNC(=N)N)C(=O)C2` [d-Camphor--SO2 --Met[S(O2)]--Pro--Arg-al], the results for the IC50 (in test [1]; at Purified human plasmin) were 2.6 nM and 30 nM, respectively.
